In patent publication US8802597B2, “Herbicidal pyrimidines” (E I du Pont de Nemours and Company, priority 2003, dated 2014):
Where two headings read alike, the source gives them in different places.

Key:
Format in all cases: in vivo
[1] = system: Surinam grass (Brachiaria decumbens); test: Test B pre/postemergence; details: Urochloa decumbens; for pest or weed control at 125 g/ha: 125 g ai/ha; for pest or weed control at 500 g/ha: 500 g ai/ha
Summary of the method: (§1)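 Greenhouse whole-plant test; surfactant-containing non-phytotoxic solvent formulation; pre- and postemergence applications made simultaneously; post plants 2–18 cm, 1- to 4-leaf; visual scoring at 13–15 days on 0–100 scale relative to controls.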

[2] = system: barnyardgrass (Echinochloa crus-galli); test: Test B pre/postemergence; details: Echinochloa crus-galli; for pest or weed control at 125 g/ha: 125 g ai/ha; for pest or weed control at 500 g/ha: 500 g ai/ha
Summary of the method: as §1

[3] = system: cocklebur (Xanthium strumarium); test: Test B pre/postemergence; details: Xanthium strumarium; for pest or weed control at 125 g/ha: 125 g ai/ha; for pest or weed control at 500 g/ha: 500 g ai/ha
Summary of the method: as §1

corn (Zea mays) = test: Test B pre/postemergence; details: Zea mays
Summary of the method: as §1

[4] = system: crabgrass (Digitaria sanguinalis); test: Test B pre/postemergence; details: Digitaria sanguinalis; for pest or weed control at 125 g/ha: 125 g ai/ha; for pest or weed control at 500 g/ha: 500 g ai/ha
Summary of the method: as §1

[5] = system: giant foxtail (Setaria faberii); test: Test B pre/postemergence; details: Setaria faberi; for pest or weed control at 125 g/ha: 125 g ai/ha; for pest or weed control at 500 g/ha: 500 g ai/ha
Summary of the method: as §1

[6] = system: lambsquarters (Chenopodium album); test: Test B pre/postemergence; details: Chenopodium album; for pest or weed control at 125 g/ha: 125 g ai/ha; for pest or weed control at 500 g/ha: 500 g ai/ha
Summary of the method: as §1

[7] = system: morningglory (Ipomoea coccinea); test: Test B pre/postemergence; details: Ipomoea; for pest or weed control at 125 g/ha: 125 g ai/ha; for pest or weed control at 500 g/ha: 500 g ai/ha
Summary of the method: as §1

[8] = system: pigweed (Amaranthus retroflexus); test: Test B pre/postemergence; details: Amaranthus retroflexus; for pest or weed control at 125 g/ha: 125 g ai/ha; for pest or weed control at 500 g/ha: 500 g ai/ha
Summary of the method: as §1

[9] = system: velvetleaf (Abutilon theophrasti); test: Test B pre/postemergence; details: Abutilon theophrasti; for pest or weed control at 125 g/ha: 125 g ai/ha; for pest or weed control at 500 g/ha: 500 g ai/ha
Summary of the method: as §1

[10] = system: wheat (Triticum aestivum); test: Test B pre/postemergence; details: Triticum aestivum; for plant injury at 125 g/ha: 125 g ai/ha; for plant injury at 500 g/ha: 500 g ai/ha
Summary of the method: as §1

[11] = system: blackgrass (Alopecurus myosuroides); test: Test B postemergence; details: Alopecurus myosuroides, post-emergence
Summary of the method: as §1

wild oat (Avena fatua) = test: Test B postemergence; details: Avena fatua, post-emergence
Summary of the method: as §1

[12] = system: barnyardgrass (Echinochloa crus-galli); test: Test B flooded paddy test; details: Echinochloa crus-galli, Flood, 1000 g ai/ha; scale 0 (no effect) to 100 (complete control); read-out: Plant response rating, Barnyardgrass
Summary of the method: (§2)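 Visual injury scoring (0 = no effect, 100 = complete control) versus controls made 13 to 15 days after treatment in the greenhouse. Test species were grown in flooded paddy to the 2-leaf stage: rice, barnyardgrass, umbrella sedge, duck salad.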

[13] = system: duck salad (Heteranthera limosa); test: Test B flooded paddy test; details: Heteranthera limosa, Flood, 1000 g ai/ha; scale 0 to 100; read-out: Plant response rating, Ducksalad
Summary of the method: as §2

rice (Oryza sativa) = test: Test B flooded paddy test; details: Oryza sativa, Flood, 1000 g ai/ha; scale 0 to 100; read-out: Plant response rating, Rice
Summary of the method: as §2

[14] = system: umbrella sedge (Cyperus difformis); test: Test B flooded paddy test; details: Cyperus difformis, Flood, 1000 g ai/ha; scale 0 to 100; read-out: Plant response rating, Sedge, Umbrella
Summary of the method: as §2

Compound: COC(=O)c1nc(C2CC2)nc(N)c1Br [Compound 2, methyl 6-amino-5-bromo-2-cyclopropyl-4-pyrimidinecarboxylate]
- pest or weed control at 125 g/ha ([1]; post-emergence, Postemergence, scale 0 to 100 (0 no effect, 100 complete control), read-out: Surinam Grass plant response rating): 90%
- pest or weed control at 500 g/ha ([1]; post-emergence, Postemergence, scale 0 to 100, read-out: Plant response rating, Surinam Grass): 90%
- pest or weed control at 125 g/ha ([1]; pre-emergence, Preemergence, scale 0 to 100 (0 no effect, 100 complete control), read-out: Plant response rating, Surinam Grass): 40%
- pest or weed control at 500 g/ha ([1]; pre-emergence, Preemergence, scale 0 to 100 (0 no effect, 100 complete control), read-out: Surinam Grass plant response rating): 90%
- pest or weed control at 125 g/ha ([2]; post-emergence, Postemergence, scale 0 to 100 (0 no effect, 100 complete control), read-out: Barnyardgrass plant response rating): 90%
- pest or weed control at 500 g/ha ([2]; post-emergence, Postemergence, scale 0 to 100, read-out: Plant response rating, Barnyardgrass): 90%
- pest or weed control at 125 g/ha ([2]; pre-emergence, Preemergence, scale 0 to 100 (0 no effect, 100 complete control), read-out: Plant response rating, Barnyardgrass): 70%
- pest or weed control at 500 g/ha ([2]; pre-emergence, Preemergence, scale 0 to 100 (0 no effect, 100 complete control), read-out: Barnyardgrass plant response rating): 90%
- pest or weed control at 125 g/ha ([3]; post-emergence, Postemergence, scale 0 to 100 (0 no effect, 100 complete control), read-out: Cocklebur plant response rating): 100%
- pest or weed control at 500 g/ha ([3]; post-emergence, Postemergence, scale 0 to 100, read-out: Plant response rating, Cocklebur): 100%
- pest or weed control at 125 g/ha ([3]; pre-emergence, Preemergence, scale 0 to 100 (0 no effect, 100 complete control), read-out: Plant response rating, Cocklebur): 90%
- pest or weed control at 500 g/ha ([3]; pre-emergence, Preemergence, scale 0 to 100 (0 no effect, 100 complete control), read-out: Cocklebur plant response rating): 100%
- plant injury at 125 g/ha (corn (Zea mays); post-emergence, Postemergence, 125 g ai/ha, scale 0 to 100 (0 no effect, 100 complete control), read-out: Corn plant response rating): 20%
- Corn plant response rating (crop injury, 0 = no effect, 100 = complete kill) at 500 g/ha (corn (Zea mays); post-emergence, Postemergence, 500 g ai/ha, scale 0 to 100): 80%
- Corn plant response rating (crop injury, 0 = no effect, 100 = complete kill) at 125 g/ha (corn (Zea mays); pre-emergence, Preemergence, 125 g ai/ha, scale 0 to 100 (0 no effect, 100 complete control)): 0%
- plant injury at 500 g/ha (corn (Zea mays); pre-emergence, Preemergence, 500 g ai/ha, scale 0 to 100 (0 no effect, 100 complete control), read-out: Corn plant response rating): 80%
- pest or weed control at 125 g/ha ([4]; post-emergence, Postemergence, scale 0 to 100 (0 no effect, 100 complete control), read-out: Crabgrass plant response rating): 90%
- pest or weed control at 500 g/ha ([4]; post-emergence, Postemergence, scale 0 to 100, read-out: Plant response rating, Crabgrass): 90%
- pest or weed control at 125 g/ha ([4]; pre-emergence, Preemergence, scale 0 to 100 (0 no effect, 100 complete control), read-out: Plant response rating, Crabgrass): 90%
- pest or weed control at 500 g/ha ([4]; pre-emergence, Preemergence, scale 0 to 100 (0 no effect, 100 complete control), read-out: Crabgrass plant response rating): 90%
- pest or weed control at 125 g/ha ([5]; post-emergence, Postemergence, scale 0 to 100 (0 no effect, 100 complete control), read-out: Foxtail, Giant plant response rating): 70%
- pest or weed control at 500 g/ha ([5]; post-emergence, Postemergence, scale 0 to 100, read-out: Plant response rating, Foxtail, Giant): 80%
- pest or weed control at 125 g/ha ([5]; pre-emergence, Preemergence, scale 0 to 100 (0 no effect, 100 complete control), read-out: Plant response rating, Foxtail, Giant): 30%
- pest or weed control at 500 g/ha ([5]; pre-emergence, Preemergence, scale 0 to 100 (0 no effect, 100 complete control), read-out: Foxtail, Giant plant response rating): 90%
- pest or weed control at 125 g/ha ([6]; post-emergence, Postemergence, scale 0 to 100 (0 no effect, 100 complete control), read-out: Lambsquarters plant response rating): 100%
- pest or weed control at 500 g/ha ([6]; post-emergence, Postemergence, scale 0 to 100, read-out: Plant response rating, Lambsquarters): 100%
- pest or weed control at 125 g/ha ([6]; pre-emergence, Preemergence, scale 0 to 100 (0 no effect, 100 complete control), read-out: Plant response rating, Lambsquarters): 100%
- pest or weed control at 500 g/ha ([6]; pre-emergence, Preemergence, scale 0 to 100 (0 no effect, 100 complete control), read-out: Lambsquarters plant response rating): 100%
- pest or weed control at 125 g/ha ([7]; post-emergence, Postemergence, scale 0 to 100 (0 no effect, 100 complete control), read-out: Morningglory plant response rating): 100%
- pest or weed control at 500 g/ha ([7]; post-emergence, Postemergence, scale 0 to 100, read-out: Plant response rating, Morningglory): 100%
- pest or weed control at 125 g/ha ([7]; pre-emergence, Preemergence, scale 0 to 100 (0 no effect, 100 complete control), read-out: Plant response rating, Morningglory): 100%
- pest or weed control at 500 g/ha ([7]; pre-emergence, Preemergence, scale 0 to 100 (0 no effect, 100 complete control), read-out: Morningglory plant response rating): 100%
- pest or weed control at 125 g/ha ([8]; post-emergence, Postemergence, scale 0 to 100 (0 no effect, 100 complete control), read-out: Pigweed plant response rating): 100%
- pest or weed control at 500 g/ha ([8]; post-emergence, Postemergence, scale 0 to 100, read-out: Plant response rating, Pigweed): 100%
- pest or weed control at 125 g/ha ([8]; pre-emergence, Preemergence, scale 0 to 100 (0 no effect, 100 complete control), read-out: Plant response rating, Pigweed): 90%
- pest or weed control at 500 g/ha ([8]; pre-emergence, Preemergence, scale 0 to 100 (0 no effect, 100 complete control), read-out: Pigweed plant response rating): 100%
- pest or weed control at 125 g/ha ([9]; post-emergence, Postemergence, scale 0 to 100 (0 no effect, 100 complete control), read-out: Velvetleaf plant response rating): 60%
- pest or weed control at 500 g/ha ([9]; post-emergence, Postemergence, scale 0 to 100, read-out: Plant response rating, Velvetleaf): 100%
- pest or weed control at 125 g/ha ([9]; pre-emergence, Preemergence, scale 0 to 100 (0 no effect, 100 complete control), read-out: Plant response rating, Velvetleaf): 90%
- pest or weed control at 500 g/ha ([9]; pre-emergence, Preemergence, scale 0 to 100 (0 no effect, 100 complete control), read-out: Velvetleaf plant response rating): 100%
- plant injury at 125 g/ha ([10]; post-emergence, Postemergence, scale 0 to 100 (0 no effect, 100 complete control), read-out: Wheat plant response rating): 40%
- plant injury at 500 g/ha ([10]; post-emergence, Postemergence, scale 0 to 100, read-out: Plant response rating, Wheat): 70%
- plant injury at 125 g/ha ([10]; pre-emergence, Preemergence, scale 0 to 100 (0 no effect, 100 complete control), read-out: Plant response rating, Wheat): 60%
- plant injury at 500 g/ha ([10]; pre-emergence, Preemergence, scale 0 to 100 (0 no effect, 100 complete control), read-out: Wheat plant response rating): 70%
- pest or weed control at 125 g/ha ([11]; 125 g ai/ha, scale 0 to 100 (0 no effect, 100 complete control), read-out: Blackgrass plant response rating): 50%
- pest or weed control at 500 g/ha ([11]; 500 g ai/ha, scale 0 to 100, read-out: Plant response rating, Blackgrass): 80%
- pest or weed control at 125 g/ha (wild oat (Avena fatua); 125 g ai/ha, scale 0 to 100 (0 no effect, 100 complete control), read-out: Oat, Wild plant response rating): 40%
- pest or weed control at 500 g/ha (wild oat (Avena fatua); 500 g ai/ha, scale 0 to 100, read-out: Plant response rating, Oat, Wild): 70%
- pest or weed control at 1000 g/ha [12]: 90%
- pest or weed control at 1000 g/ha [13]: 90%
- plant injury at 1000 g/ha (rice (Oryza sativa)): 60%
- pest or weed control at 1000 g/ha [14]: 90%
